# Experimental data from patent US20080206287A1, “Use of cyclosporin A to sensitize resistant cancer cells to death receptor ligands” (priority 2006, published 2008).
# Test system: PPC-1, OVCAR-3, T47D, MDA-MB-468 and DU 145 cells
# Assay: FLIP siRNA knock-down and CH-11 killing
# Assay type: cell-based
# Details: PPC-1 cells transfected with FLIP siRNA
# Experimental: Transfection of siRNA oligonucleotides. Double-stranded SMARTPOOL siRNA oligonucleotides targeting c-FLIP mRNA and double-stranded firefly luciferase control siRNA (Dharmacon Research, Lafayette, Colo.) (10 nM) were transfected into cells with Lipofectamine according to the manufacturer's instructions.
# To test the functional importance of decreases in FLIP by 5809354, it was determined whether knocking down FLIP could recapitulate the activity of the molecule and abrogate 5809354's ability to sensitize cells to CH-11. PPC-1 cells were transfected with double stranded siRNA that targeted FLIP or luciferase as a control. At 24 hours after transfection, cells were treated with increasing concentrations of 5809354 with or without CH-11.
structure (smiles),measurement,value
"O=C(CCCOc1ccc(Cl)cc1Cl)NO [compound 5809354, 4-(2,4-dichlorophenoxy)-N-hydroxybutanamide]",enhancement of CH-11-mediated killing in the presence of FLIP siRNA,the longer enhanced CH-11-mediated killing
